Several values for one entry are separate records, joined by “and”; a condition that tells them apart may be missing. Equal values may be shown once. Inconclusive results and toxic doses are left out. Rule for the calls: active = survival T/C of 150% or more; inactive = T/C below 125% in these data.
Tested on: BDF1 mice, P388 leukemia ip, median survival T/C
Experiment: NCI In Vivo Anticancer Drug Screen. Data for tumor model P388 Leukemia (intraperitoneal) in B6D2F1 (BDF1) mice
Conditions: endpoint: median survival time, higher = longer survival
How it was run: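 In tumour-bearing mice, survival after compound treatment is set against the vehicle group and given as a quotient.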

[1] = dose: 50.0 mg/kg/injection, schedule: Q01DX009 (ip), vehicle: saline with Tween-80
[2] = dose: 100.0 mg/kg/injection, schedule: Q01DX009 (ip), vehicle: saline with Tween-80
[3] = dose: 200.0 mg/kg/injection, schedule: Q01DX009 (ip), vehicle: saline with Tween-80
[4] = dose: 12.5 mg/kg/injection, schedule: Q01DX009 (ip), vehicle: saline with Tween-80
[5] = dose: 25.0 mg/kg/injection, schedule: Q01DX009 (ip), vehicle: saline with Tween-80
[6] = dose: 200.0 mg/kg/injection, schedule: Q04DX003 (ip), vehicle: saline with Tween-80
[7] = dose: 400.0 mg/kg/injection, schedule: Q04DX003 (ip), vehicle: saline with Tween-80
[8] = dose: 400.0 mg/kg/injection, schedule: Q01DX009 (ip), vehicle: saline with Tween-80

Measured: T/C

CCSC1(SCC)C(=O)OC2=C(CCCCC2)C1N(C)C (stereo not drawn)
inactive: [1] 96 % of control | [2] 95 % of control | [3] 103 % of control

Cc1ccc(C)c(C(=O)CCC(=O)O)c1
inactive: [4] 108 % of control | [5] 110 % of control | [2] 91 % of control | [3] 99 % of control | [6] 91 % of control | [7] 100 % of control

O=[N+]([O-])c1ccc(NCCO)c([N+](=O)[O-])c1
inactive: [1] 101 % of control | [2] 107 % of control | [3] 113 % of control

COC(CNC(=O)Nc1cccnc1)[CH2][Hg][Cl] (stereo not drawn)
inactive: [4] 90 % of control | [5] 104 % of control | [1] 100 % of control

CC(=O)Nc1ccc(SSSc2ccc(NC(C)=O)cc2)cc1
inactive: dose: 12.5 mg/kg/injection, schedule: Q01DX009 (ip), vehicle: water 100 % of control | dose: 25.0 mg/kg/injection, schedule: Q01DX009 (ip), vehicle: water 96 % of control | dose: 50.0 mg/kg/injection, schedule: Q01DX009 (ip), vehicle: water 101 % of control | dose: 100.0 mg/kg/injection, schedule: Q01DX009 (ip), vehicle: water 105 % of control | dose: 200.0 mg/kg/injection, schedule: Q01DX009 (ip), vehicle: water 111 % of control and 118 % of control

COn1nnc2c(Cl)c(Cl)ccc21
inactive: dose: 100.0 mg/kg/injection, schedule: Q04DX003 (ip), vehicle: saline with Tween-80 95 % of control | [6] 92 % of control | [7] 100 % of control

Cc1ccc(N=C(c2ccccc2)c2ccc([N+](=O)[O-])cc2)cc1
inactive: dose: 100.0 mg/kg/injection, schedule: Q01DX001 (ip), vehicle: Klucel (hydroxypropylcellulose) (HPC) 108 % of control | dose: 200.0 mg/kg/injection, schedule: Q01DX001 (ip), vehicle: Klucel (hydroxypropylcellulose) (HPC) 100 % of control | dose: 400.0 mg/kg/injection, schedule: Q01DX001 (ip), vehicle: Klucel (hydroxypropylcellulose) (HPC) 104 % of control

COc1ccc(-c2cnc(C(N)=O)c(=O)[nH]2)cc1
inactive: [2] 104 % of control | [3] 108 % of control | [8] 100 % of control

O=c1[nH]nc(-c2ccccc2)nc1/C(=N\Nc1ccc([N+](=O)[O-])cc1)c1ccccc1
inactive: [1] 89 % of control | [2] 89 % of control | [3] 98 % of control

CNC(C)c1ccc(C)cc1 (stereo not drawn)
inactive: dose: 6.25 mg/kg/injection, schedule: Q04DX003 (ip), vehicle: saline 100 % of control | dose: 12.5 mg/kg/injection, schedule: Q04DX003 (ip), vehicle: saline 104 % of control | dose: 25.0 mg/kg/injection, schedule: Q04DX003 (ip), vehicle: saline 100 % of control

O=C(NCc1cnccn1)c1ccc([N+](=O)[O-])cc1
inactive: [1] 100 % of control | [2] 94 % of control | [3] 100 % of control | [8] 103 % of control

COC(=O)c1ccc(OS(=O)(=O)c2cccc([N+](=O)[O-])c2)cc1
inactive: [2] 88 % of control | dose: 100.0 mg/kg/injection, schedule: Q04DX003 (ip), vehicle: Klucel (hydroxypropylcellulose) (HPC) 100 % of control | [3] 100 % of control | dose: 200.0 mg/kg/injection, schedule: Q04DX003 (ip), vehicle: Klucel (hydroxypropylcellulose) (HPC) 100 % of control | [8] 88 % of control | dose: 400.0 mg/kg/injection, schedule: Q04DX003 (ip), vehicle: Klucel (hydroxypropylcellulose) (HPC) 100 % of control

CC(=O)Oc1cc(OCCCc2ccc(F)cc2)cc2ccc3ccccc3c12
inactive: dose: 25.0 mg/kg/injection, schedule: Q04DX002 (ip), vehicle: saline with Tween-80 99 % of control | dose: 50.0 mg/kg/injection, schedule: Q04DX002 (ip), vehicle: saline with Tween-80 98 % of control | dose: 100.0 mg/kg/injection, schedule: Q04DX002 (ip), vehicle: saline with Tween-80 90 % of control
